Assay results published in US11912693B2, “Compounds for modulating S1P1 activity and methods of using the same” (TREVENA, INC., priority 2017, dated 2024).

Assays:
[1] = molecular target: T1, human sphingosine-1-phosphate receptor 1 (S1P1) (Homo sapiens (Human), UniProt P21453); assay: Inhibition of cAMP production (HTRF cAMP HiRange), S1P1 CHO-K1 cells; type: cell-based; conditions: for Emax: CHO-K1, efficacy (SPAN) normalized to fingolimod, read-out: hS1P1 cAMP SPAN; for hS1P1 cAMP pEC50: inhibition of cAMP production, S1P1 CHO-K1 cells
Method in brief: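 CHO-K1 cells stably co-expressing human S1P1 (C-terminal Prolink tag) and EA-β-arrestin2 were grown in AssayComplete Media 6 at 37° C. and 5% CO2, plated, and incubated overnight. Agonist-driven inhibition of intracellular cAMP was read by TR-FRET with the HTRF cAMP HiRange kit on a PheraStar reader. Potency is pEC50, and efficacy (SPAN) is normalized to fingolimod.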
Target sequence in this assay (P21453 whole entry, looked up): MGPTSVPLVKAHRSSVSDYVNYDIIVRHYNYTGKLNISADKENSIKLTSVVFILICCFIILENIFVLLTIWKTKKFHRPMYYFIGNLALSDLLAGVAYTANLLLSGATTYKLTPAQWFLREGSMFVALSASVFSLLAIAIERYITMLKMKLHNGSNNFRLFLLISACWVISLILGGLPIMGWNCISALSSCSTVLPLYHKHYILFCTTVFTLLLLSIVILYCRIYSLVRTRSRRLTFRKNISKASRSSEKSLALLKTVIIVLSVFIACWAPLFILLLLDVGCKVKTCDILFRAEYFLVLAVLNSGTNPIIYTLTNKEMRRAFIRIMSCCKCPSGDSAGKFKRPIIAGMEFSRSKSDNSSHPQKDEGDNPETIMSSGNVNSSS

[2] = molecular target: T1, human sphingosine-1-phosphate receptor 1 (S1P1); assay: β-Arrestin2 recruitment assay (PathHunter), S1P1 CHO-K1 cells; type: cell-based; conditions: for Emax: CHO-K1, efficacy (SPAN) normalized to fingolimod, read-out: hS1P1 B-arrestin2 SPAN; for hS1P1 B-arrestin2 pEC50: β-arrestin2 recruitment, S1P1 CHO-K1 cells
Method in brief: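 Enzyme-fragment complementation read-out: agonist-driven β-arrestin2 binding to ProLink-tagged human S1P1 in stable CHO-K1 cells restores β-galactosidase, measured 1 h at room temperature after a 60 min 37° C. compound incubation. Potency as pEC50, efficacy relative to fingolimod (SPAN).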
Target sequence in this assay (P21453 whole entry, looked up): as above
Target sequence in this assay (P32121 whole entry partner, looked up): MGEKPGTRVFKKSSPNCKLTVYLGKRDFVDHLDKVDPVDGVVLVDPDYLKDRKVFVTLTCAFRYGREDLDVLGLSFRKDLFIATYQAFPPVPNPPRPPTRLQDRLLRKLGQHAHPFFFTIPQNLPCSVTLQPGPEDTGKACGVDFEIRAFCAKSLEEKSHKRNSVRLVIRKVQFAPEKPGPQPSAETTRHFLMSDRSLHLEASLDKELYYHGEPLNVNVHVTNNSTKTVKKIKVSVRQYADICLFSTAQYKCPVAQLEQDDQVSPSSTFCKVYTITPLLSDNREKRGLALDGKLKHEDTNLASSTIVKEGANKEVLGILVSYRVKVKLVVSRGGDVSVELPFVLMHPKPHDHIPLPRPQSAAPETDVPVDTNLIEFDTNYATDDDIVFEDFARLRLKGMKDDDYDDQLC

| SMILES | Emax [1] | hS1P1 cAMP pEC50 [1] | Emax [2] | hS1P1 B-arrestin2 pEC50 [2] |
| --- | --- | --- | --- | --- |
| Cc1cc(C)cc(-c2noc(-c3ccc4c(c3)nnn4C(C)C)n2)c1 [Compound 204, 5-[3-(3,5-dimethylphenyl)-1,2,4-oxadiazol-5-yl]-1-(propan-2-yl)-1H-1,2,3-benzotriazole] | > 75% | <6.5 | > 75% | >5 |
| CCCn1nnc2cc(-c3nc(-c4ccncc4)no3)ccc21 [Compound 205, 1-propyl-5-[3-(pyridin-4-yl)-1,2,4-oxadiazol-5-yl]-1H-1,2,3-benzotriazole] | > 75% | <6.5 | < 75% | <5 |
| Cc1ccncc1-c1noc(-c2ccc3c(c2)nnn3CC(C)(C)O)n1 [Compound 206, 2-methyl-1-{5-[3-(4-methylpyridin-3-yl)-1,2,4-oxadiazol-5-yl]-1H-1,2,3-benzotriazol-1-yl}propan-2-ol] | > 75% | <6.5 | < 75% | <5 |
| COc1ccccc1-c1noc(-c2ccc3c(c2)nnn3C(C)(C)C)n1 [Compound 207, 1-tert-butyl-5-[3-(2-methoxyphenyl)-1,2,4-oxadiazol-5-yl]-1H-1,2,3-benzotriazole] | > 75% | >6.5 | > 75% | >5 |
| C=CCNc1ccc(-c2nc(-c3ccc4[nH]ccc4c3)no2)cc1C#N [Compound 208, 5-(3-(1H-indol-5-yl)-1,2,4-oxadiazol-5-yl)-2-(allylamino)benzonitrile] | > 75% | >6.5 | > 75% | >5 |
| CCC1(CC)CC(=O)c2cc(-c3nc(-c4ccc(NC(C)=O)cc4)no3)ccc2O1 [Compound 209, N-(4-(5-(2,2-diethyl-4-oxochroman-6-yl)-1,2,4-oxadiazol-3-yl)phenyl)acetamide] | > 75% | >6.5 | > 75% | >5 |
| CCC1(CC)CC(=O)c2cc(-c3nc(-c4ccc5[nH]cnc5c4)no3)ccc2O1 [Compound 211, 6-(3-(1H-benzo[d]imidazol-5-yl)-1,2,4-oxadiazol-5-yl)-2,2-diethylchroman-4-one] | < 75% | <6.5 | > 75% | >5 |
| COc1ccccc1-c1nsc(-c2ccc3c(c2)nnn3C(C)C)n1 [Compound 213, 5-[3-(2-methoxyphenyl)-1,2,4-thiadiazol-5-yl]-1-(propan-2-yl)-1H-1,2,3-benzotriazole] |  | <6.5 |  | <5 |
| O=C1CC2(CCOCC2)Oc2ccc(-c3nc(-c4cccnc4)no3)cc21 [Compound 214, 6-[3-(pyridin-3-yl)-1,2,4-oxadiazol-5-yl]-3,4-dihydrospiro[1-benzopyran-2,4′-oxane]-4-one] | < 75% | <6.5 | < 75% | <5 |
| CC(C)n1nnc2cc(-c3ncc(-c4ccccc4C(F)(F)F)s3)ccc21 [Compound 215, 2-(1-isopropyl-1H-benzo[d][1,2,3]triazol-5-yl)-5-(2-(trifluoromethyl)phenyl)thiazole] | < 75% | <6.5 | < 75% | <5 |
| Cc1ccccc1-c1cnc(-c2ccc3c(c2)nnn3C(C)C)s1 [Compound 216, 2-(1-isopropylbenzotriazol-5-yl)-5-(o-tolyl)thiazole] | < 75% | <6.5 | < 75% | <5 |
| O=C1CC2(CCC(F)(F)CC2)Oc2ccc(-c3nc(-c4ccncc4)no3)cc21 [Compound 217, 4′,4′-difluoro-6-[3-(pyridin-4-yl)-1,2,4-oxadiazol-5-yl]-3,4-dihydrospiro[1-benzopyran-2,1′-cyclohexane]-4-one] |  | <6.5 |  | <5 |
| CCCC1(CCC)CC(=O)c2cc(-c3nc(-c4cccnc4)no3)ccc2O1 [Compound 218, 2,2-dipropyl-6-[3-(pyridin-3-yl)-1,2,4-oxadiazol-5-yl]-3,4-dihydro-2H-1-benzopyran-4-one] |  | <6.5 |  | <5 |
| CC(C)n1nnc2cc(-c3ncc(-c4ccccc4Br)s3)ccc21 [Compound 220, 5-(2-bromophenyl)-2-(1-isopropylbenzotriazol-5-yl)thiazole] |  | <6.5 |  | <5 |
| CCC1(CC)CC(=O)c2cc(-c3nsc(-c4ccccc4OC)n3)ccc2O1 [Compound 222, 2,2-diethyl-6-(5-(2-methoxyphenyl)-1,2,4-thiadiazol-3-yl)chroman-4-one] |  | <6.5 |  | >5 |
| CCC1(CC)CC(=O)c2cc(-c3nnc(-c4ccc5c(c4)nnn5C(C)C)o3)ccc2O1 [Compound 223, 2,2-diethyl-6-(5-(1-isopropyl-1H-benzo[d][1,2,3]triazol-5-yl)-1,3,4-oxadiazol-2-yl)chroman-4-one] | < 75% | <6.5 | < 75% | <5 |
| CCC1(CC)CC(=O)c2cc(-c3nc(-c4cccc(C)c4)no3)ccc2O1 [Compound 225, 2,2-diethyl-6-(3-(m-tolyl)-1,2,4-oxadiazol-5-yl)chroman-4-one] |  | <6.5 |  | >5 |
| CCC1(CC)CC(=O)c2cc(-c3nc(-c4ccncc4F)no3)ccc2O1 [Compound 226, 2,2-diethyl-6-(3-(3-fluoropyridin-4-yl)-1,2,4-oxadiazol-5-yl)chroman-4-one] |  | <6.5 |  | <5 |
| CCC1(CC)CC(=O)c2cc(-c3nc(-c4cccc(O)c4)no3)ccc2O1 [Compound 227, 2,2-diethyl-6-[3-(3-hydroxyphenyl)-1,2,4-oxadiazol-5-yl]chroman-4-one] |  | >6.5 |  | <5 |
| COc1cccc(-c2noc(-c3ccc4c(c3)nnn4C(C)C)n2)c1 [Compound 228, 5-(1-isopropyl-1H-benzo[d][1,2,3]triazol-5-yl)-3-(3-methoxyphenyl)-1,2,4-oxadiazole] |  | <6.5 |  | <5 |
| Cc1cncc(-c2nc(-c3ccc4c(c3)nnn4C(C)C)no2)n1 [Compound 229, 3-(1-isopropyl-1H-benzo[d][1,2,3]triazol-5-yl)-5-(6-methylpyrazin-2-yl)-1,2,4-oxadiazole] |  | <6.5 |  | >5 |
